Reference: ChEMBL document CHEMBL4043188, “Structural characterization of a new steroidal saponin from Agave angustifolia var. Marginata and a preliminary investigation of its in vivo antiulcerogenic activity and in vitro membrane permeability property” (Bioorg Med Chem Lett, 2017)
The source made the active and inactive calls. The rule behind the calls is not given here.

Tested on: Mus musculus
Experiment: Antiulcerogenic activity against acidified ethanol induced-gastric lesions in Swiss mouse at 100 mg/kg, po administered 1 hr prior to acidified ethanol challenge measured after 1 hr
Assay type: functional, organism-based

| SMILES | Activity |
| --- | --- |
| CO[C@]1(CC[C@@H](C)CO[C@H]2O[C@@H](CO)[C@H](O)[C@@H](O)[C@@H]2O)O[C@H]2C[C@H]3[C@@H]4CC[C@H]5C[C@@H](O[C@@H]6O[C@H](CO)[C@H](O[C@@H]7O[C@H](CO)[C@@H](O)[C@H](O[C@@H]8O[C@H](CO)[C@@H](O)[C@H](O[C@@H]9O[C@H](CO)[C@@H](O)[C@H](O)[C@H]9O)[C@H]8O)[C@H]7O[C@@H]7OC[C@@H](O[C@@H]8O[C@@H](C)[C@H](O)[C@@H](O)[C@H]8O)[C@H](O)[C@H]7O)[C@H](O)[C@H]6O)CC[C@]5(C)[C@H]4CC[C@]3(C)[C@H]2[C@@H]1C | Active |
| C[C@@H]1CC[C@@]2(OC1)O[C@H]1C[C@H]3[C@@H]4C[C@H](O)[C@H]5C[C@@H](O[C@@H]6O[C@H](CO)[C@H](O[C@@H]7O[C@H](CO)[C@@H](O)[C@H](O[C@@H]8O[C@H](CO)[C@@H](O[C@@H]9O[C@@H](C)[C@H](O)[C@@H](O)[C@H]9O)[C@H](O)[C@H]8O)[C@H]7O[C@@H]7O[C@H](CO)[C@@H](O)[C@H](O[C@@H]8O[C@H](CO)[C@@H](O)[C@H](O)[C@H]8O)[C@H]7O)[C@H](O)[C@H]6O)CC[C@]5(C)[C@H]4CC(=O)[C@]3(C)[C@H]1[C@@H]2C | Active |
